# From PMC12557438, “Thiadiazino-indole, thiadiazino-carbazole and benzothiadiazino-carbazole dioxides: synthesis, physicochemical and early ADME characterization of representatives of new tri-, tetra- and pentacyclic ring systems and their intermediates” (Beilstein Journal of Organic Chemistry, 2025)
# Read-outs that look alike come from different tables or passages of the source.
# How the values were obtained:
# [1] = Metabolic stability assay in human liver microsome fractions; format: in vitro ADME; settings: NADPH, 37 °C
# Protocol: Metabolic stability assay in human liver microsome fractions. The metabolic stability of the test compounds was assessed in vitro using pooled liver microsome fractions derived from humans (Xenotech LLC). The assay was conducted in a 96-well plate format according to a standardized protocol, utilizing cofactor-supplemented incubation systems, mainly to mimic phase I oxidative metabolic pathways. Human liver microsome (HLM) fractions were thawed on ice and diluted in 0.05 M potassium phosphate buffer (pH 7.4) to a final protein concentration of 1.25 mg/mL. Test compounds were dissolved in DMSO to create stock solutions of 5 mM. The drug concentration in the final assays was 10 μM. The assay was performed in triplicate. Reaction mixtures containing the diluted HLM fractions and test compounds were pre-incubated for 5 minutes at 37 °C while shaking at 450 rpm. The reaction was initiated by adding the 0.05 M NADPH cofactor mixture to the wells (100 µL per well) for the “with cofactors” conditions or by adding phosphate buffer for the “without cofactors” control. Aliquots (100 µL) were taken at zero time and at pre-defined time points of 30 and 60 minutes and quenched with an equal volume of cold acetonitrile. The samples were centrifuged at 2600 RCF for 10 minutes to pellet proteins. Supernatants were transferred to LC vials and stored at −20 °C until LC–MS/MS analysis. The concentration of the parent compound remaining in each sample was determined using liquid chromatography coupled with tandem mass spectrometry (LC–MS/MS). The percentage of the remaining substrate was calculated relative to the time-zero sample. The natural logarithm of the percentage remaining was plotted against incubation time to determine the first-order elimination rate constant (k) using linear regression. The half-life (t₁/₂) was calculated using Equation 4: […]
# Intrinsic clearance (Clint) was calculated and scaled to in vivo conditions using Equation 5:
# [5] Clint=ln2/t1/2×liver weight (g)/standard body weight (kg)×incubation volume (mL)/HLM protein/well×HLM protein (mg)/gram of liver
# where the HLM protein per gram of liver was equal to 25 and the liver weight per standard body was equal to 49. Testosterone was included as a positive control to confirm metabolic competence of the HLM fractions, with and without cofactors.
# HPLC–MS analysis. The semi-quantitative determination of test compounds was carried out using a Waters Xevo G2-XS QToF mass spectrometer equipped with an electrospray ionization (ESI) source operating in positive ion mode. Chromatographic separation was performed on a Waters XBridgeTM Premier BEH C18 (3.5 μm, 4.6 × 150 mm) column maintained at 40 °C. The mobile phase consisted of water with 0.1% formic acid (A) and acetonitrile with 0.1% formic acid (B). The injection volume was 10 µL. The autosampler was maintained at 5 °C. The gradient elution program shown in Table 4 was applied at a constant flow rate of 1.0 mL/min.
# The mass spectrometer operated in sensitivity mode with a capillary voltage of 3.0 kV, source temperature was 100 °C, and desolvation temperature was 350 °C. The cone gas flow was set to 0 L/h and desolvation gas flow to 800 L/h. LockSpray calibration was performed using leucine enkephalin as the reference compound (m/z 556.2771), introduced at 15 µL/min. Data acquisition was performed in MSE mode with alternating low collision energy (6 eV) and ramped high-energy collision dissociation (20–40 eV). The mass range was set from 50 to 1200 Da. Each function used a scan time of 0.5 s. Data were acquired in the continuum mode. Instrument mass accuracy calibration was verified using sodium formate. The system was controlled with a MassLynx v4.2 SCN996 software.
# [2] = In vitro gastrointestinal permeability assay (GI PAMPA); format: in vitro ADME; settings: for GI PAMPA membrane retention / GI PAMPA penetration: donor pH 6.5, acceptor pH 7.4, 1% DMSO, 37 °C, 4 hours, mean of 3 replicates; for GI PAMPA permeability in words: wording of the text, outside the class key; for Papp at 4 h, 100 µM: PAMPA
# Protocol: In vitro gastrointestinal permeability assay. […] The artificial membrane was fabricated by dissolving ʟ-α-phosphatidylcholine (16 mg) and cholesterol (4 mg) in a solvent mixture of chloroform, hexane and dodecane (5/70/25 vol %). Each well of the PAMPA donor plate (MAIPNTR, PVDF membrane, Merck KGaA, Darmstadt, Germany) was coated with 5 μL lipid solution. Thereafter the donor plate was fitted into the acceptor plate (MSSACCEPTOR, Merck KGaA, Darmstadt, Germany) already containing 300 μL PBS (pH 7.4) solutions with 1% DMSO. Finally, 150 μL of the initial solutions was pipetted into the donor plate, the plate sandwich was covered with a wet paper tissue and with a plate lid to avoid evaporation, and the system was incubated at 37 °C for 4 hours. Then samples were taken from the donor and acceptor wells and analyzed along with the initial solutions by HPLC.
# [1] Pe=−2.303/A⋅(t−τss)⋅(1/1+ra)⋅lg[−ra+(1+ra/1−MR)⋅cD(t)/cD(0)]
# [2] MR=1−cD(t)/cD(0)−VAcA(t)/VDcD(0)
# where A is the filter area (0.24 cm^2), t is the incubation time (s), τss is the time to reach steady-state (s), ra is the sink asymmetry ratio approximated with a value of 10^−14, VD and VA are the volumes in the donor (0.15 mL) and the acceptor phase (0.3 mL), cD(t) is the concentration of the compound in the donor phase at time point t (mol/L), cD(0) is the concentration of the compound in the donor phase at time point zero (initial solutions, mol/L), cA(t) is the concentration of the compound in the acceptor phase at time point t (mol/L), cA(0) is the concentration of the compound in the acceptor phase at time point zero (mol/L).
# (§1) Analytical methods. […] For a 7-minute long gradient program, eluents A (0.1% formic acid in water) and B (0.1% formic acid in acetonitrile) were used as follows: initial conditions with 30% B were kept for 1 minute, then 90% B was achieved within 3 minutes, kept for further 1 minute, finally the initial condition was adjusted and equilibrated for further 2 minutes. 5-Point calibration series were measured from each compound resulting in R^2 ≈ 0.9990–0.9999.
# [3] = Determination of the capacity factor (logk) by RP-HPLC; format: physicochemical; settings: reversed-phase chromatographic capacity factor, eluent pH 7.0
# Protocol: Determination of the capacity factor. […] The same analytical method was used with modified eluents: eluent A was 20 mM triethylamine with phosphoric acid (pH 7.0), and eluent B was acetonitrile without additives. The method time was slightly extended, with a 1-minute longer gradient, resulting in an 8-minute program. The capacity factor was calculated with Equation 3: […]
# where k is the capacity factor, tR is the retention time (min) of the compounds and t0 is the dead-time of the column (min).
# [4] = Kinetic aqueous solubility assay; format: physicochemical; design: key to Kinetic solubility (no value): –: Compounds with no value were under the detection limit; settings: for Kinetic solubility in words: wording of the text, outside the class key; for solubility kinetic at 2 h: PBS buffer, pH 6.5, aqueous buffer, kinetic from dmso stock; for Kinetic solubility (no value): PBS pH 6.5, 2 hours, dash = under the detection limit
# Protocol: Kinetic aqueous solubility assay. All compounds were dissolved in DMSO to make stock solutions at 10 mM concentration. […] 5 μL of the stock solutions was pipetted into a 96-well plate containing 495 μL PBS (pH 6.5) in each well to achieve 100 μM target concentration (1% DMSO). […] The plate was then sealed and shaken for 2 hours at room temperature. Each compound was investigated in 3 replicates. After 2 hours, the samples were filtered on a MultriscreenHTS filter plate (MSSLBPC, polycarbonate membrane, Merck KGaA, Darmstadt, Germany) by a Millipore Vacuum Manifold (Merck KGaA, Darmstadt, Germany). Before analyzing, 20 vol % acetonitrile was added to each well to avoid sample precipitation during HPLC analysis.
# as §1
# [5] = PBS pH 6.5, 100 µM target concentration (1% DMSO), 2 hours, room temperature, mean of 3 replicates
# [6] = PBS pH 6.5, 100 µM target concentration (1% DMSO), 2 hours, room temperature, mean of 3 replicates, read-out: Kinetic solubility
# [7] = class in words, read-out: Kinetic solubility category
structure (smiles),measurement,setting,value
CC/C(C)=N/Nc1cccc2c1S(=O)(=O)N(C)N=C2C [(E)-7a],HLM Clint,"[1]; pooled human liver microsomes, 10 μM, scaled to in vivo conditions (Equation 5)",1.2 ± 0.042 mL/h/kg
same,HLM t1/2,"[1]; pooled human liver microsomes, 10 μM, triplicate",34 ± 1 min
same,GI PAMPA membrane retention (MR) category,[2]; class in words,moderate (moderate under 80%)
same,GI PAMPA permeability (Pe) category,[2]; class in words,good (good above 10 × 10^−6 cm/s)
same,GI PAMPA membrane retention,[2],61.0 ± 5.1%
same,GI PAMPA penetration,[2],33.6 ± 3.0 10^−6 cm/s
same,logk (−) pH 7.0,[3],0.547
same,Kinetic solubility,[4]; [5],20.5 ± 0.8 µM
same,Kinetic solubility in words,[4],moderate to good
CC1=NN(C)S(=O)(=O)c2c1ccc1c(C)c(C)[nH]c21 [Compound 3a],logk (−) pH 7.0,[3],0.580
same,solubility kinetic at 2 h,[4]; [6],1.5 ± 0.09 µM
CCc1[nH]c2c3c(ccc2c1C)C(C)=NN(C)S3(=O)=O [Compound 3b],GI PAMPA membrane retention (MR) category,[2]; class in words,extremely high (extremely high above 90%)
same,GI PAMPA membrane retention,[2],98.5 ± 0.1%
same,GI PAMPA penetration,[2],0.0 10^−6 cm/s
same,GI PAMPA permeability in words,[2],nearly zero
same,logk (−) pH 7.0,[3],0.603
same,solubility kinetic at 2 h,[4]; [6],31 ± 2.2 µM
same,solubility kinetic at 2 h,[4]; [7],> 30 µM
CC1=NN(C)S(=O)(=O)c2c1ccc1c(C)c[nH]c21 [Compound 3c],CLint scaled at 10 µM,"[1]; pH 7.4, pooled human liver microsomes, scaled to in vivo conditions (Equation 5), read-out: HLM Clint (converted)",1.42 mL/h/kg
same,half-life at 10 µM,"[1]; pH 7.4, pooled human liver microsomes, triplicate, read-out: HLM t1/2",29 ± 2 min
same,"Papp at 4 h, 100 µM","[2]; class in words, read-out: GI PAMPA permeability (Pe) category",> 10 ×10⁻⁶ cm/s
same,"Papp at 4 h, 100 µM","[2]; colour key of Figure 5, read-out: Permeability category (Pe), colouring of Figure 5",> 10 ×10⁻⁶ cm/s
same,GI PAMPA membrane retention (MR) category,[2]; class in words,moderate (moderate under 80%)
same,GI PAMPA membrane retention,[2],39.8 ± 0.2%
same,GI PAMPA penetration,[2],30.3 ± 4.2 10^−6 cm/s
same,logk (−) pH 7.0,[3],0.567
same,solubility kinetic at 2 h,[4]; [6],41.4 ± 0.9 µM
same,solubility kinetic at 2 h,[4]; [7],> 30 µM
same,Kinetic solubility in words,[4],moderate to good
CC1=NN(C)S(=O)(=O)c2c1ccc1c3c([nH]c21)CCC3 [Compound 3d],logk (−) pH 7.0,[3],0.591
same,solubility kinetic at 2 h,[4]; [6],3.2 ± 0.2 µM
Cc1[nH]c2c3c(ccc2c1C)C(c1ccccc1)=NN(C)S3(=O)=O [Compound 3f],logk (−) pH 7.0,[3],0.629
same,solubility kinetic at 2 h,[4]; [6],5 ± 0.3 µM
"Cc1c[nH]c2c3c(ccc12)C(c1ccccc1)=NN(C)S3(=O)=O [Compound 3h, 2,7-Dimethyl-4-phenyl-2,9-dihydro[1,2,3]thiadiazino[5,6-g]indole 1,1-dioxide]",logk (−) pH 7.0,[3],0.614
same,solubility kinetic at 2 h,[4]; [6],8.6 ± 0.3 µM
CN1N=C(c2ccccc2)c2ccc3c4c([nH]c3c2S1(=O)=O)CCC4 [Compound 3i],logk (−) pH 7.0,[3],0.645
same,Kinetic solubility,[4]; [5],1.7 ± 0.3 µM
CN1N=C(c2ccccc2)c2ccc3c4c([nH]c3c2S1(=O)=O)CCCC4 [Compound 3j],logk (−) pH 7.0,[3],0.660
same,Kinetic solubility (no value),[4]; room temperature,–
CCC(CC)=NNc1cccc2c1S(=O)(=O)N(C)N=C2C [Compound 7b],logk (−) pH 7.0,[3],0.625
same,Kinetic solubility,[4]; [5],6.2 ± 0.3 µM
"CC1=NN(C)S(=O)(=O)c2c(NN=C3CCCCC3)cccc21 [Compound 7e, 8-(2-Cyclohexylidenehydrazino)-2,4-dimethyl-2H-1,2,3-benzothiadiazine 1,1-dioxide]",GI PAMPA membrane retention (MR) category,[2]; class in words,extremely high (extremely high above 90%)
same,GI PAMPA membrane retention,[2],97.5 ± 0.3%
same,GI PAMPA penetration,[2],0.0 10^−6 cm/s
same,GI PAMPA permeability in words,[2],nearly zero
same,logk (−) pH 7.0,[3],0.626
same,solubility kinetic at 2 h,[4]; [6],86.3 ± 3.9 µM
same,solubility kinetic at 2 h,[4]; [7],> 30 µM
CCC(CC)=NNc1cccc2c1S(=O)(=O)N(C)N=C2c1ccccc1 [Compound 7g],logk (−) pH 7.0,[3],0.677
same,Kinetic solubility (no value),[4]; room temperature,–
CC1=NN(C)S(=O)(=O)c2c1ccc1c2[nH]c2c3ccccc3ccc12 [Compound 10a],logk (−) pH 7.0,[3],0.637
same,Kinetic solubility (no value),[4]; room temperature,–
CN1N=C(c2ccccc2)c2ccc3c([nH]c4c5ccccc5ccc34)c2S1(=O)=O [Compound 10b],logk (−) pH 7.0,[3],0.685
same,Kinetic solubility (no value),[4]; room temperature,–
CCC=NNc1cccc2c1S(=O)(=O)N(C)N=C2c1ccccc1 [crude 7h],logk (−) pH 7.0,[3],0.645
same,solubility kinetic at 2 h,[4]; [6],0.7 ± 0.02 µM
